What was measured:
[1] = target: human estrogen receptor β (hERβ) (Homo sapiens, UniProt Q92731); experiment: In vitro bioassay of estrogenic agonistic transactivation in recombinant CHO cells (hERβ, rat oxytocin promoter, luciferase reporter); format: cell-based
Experimental: (§1) The agonistic activity of compounds on the estrogen receptors was determined in an in vitro bioassay with recombinant Chinese hamster ovary (CHO) cells stably co-transfected with the human estrogen receptor α (hERα) or β (hERβ), the rat oxytocin promoter (RO) and the luciferase reporter gene (LUC). […] A more detailed description of the methodology can be found in De Gooyer M. E., Deckers G. H., Schoonen W. G. E. J., Verheul H. A. M. and Kloosterboer H. J., Steroids, Vol. 68, 2003, pp. 21-30.
(§2) ERα/ERβ selectivity is defined as the ratio ERα-potency/ERβ-potency.

[2] = target: T1, human estrogen receptor α (hERα) (Homo sapiens, UniProt P03372); experiment: In vitro bioassay of estrogenic agonistic transactivation in recombinant CHO cells (hERα, rat oxytocin promoter, luciferase reporter); format: cell-based
T1 sequence (P03372 1-595): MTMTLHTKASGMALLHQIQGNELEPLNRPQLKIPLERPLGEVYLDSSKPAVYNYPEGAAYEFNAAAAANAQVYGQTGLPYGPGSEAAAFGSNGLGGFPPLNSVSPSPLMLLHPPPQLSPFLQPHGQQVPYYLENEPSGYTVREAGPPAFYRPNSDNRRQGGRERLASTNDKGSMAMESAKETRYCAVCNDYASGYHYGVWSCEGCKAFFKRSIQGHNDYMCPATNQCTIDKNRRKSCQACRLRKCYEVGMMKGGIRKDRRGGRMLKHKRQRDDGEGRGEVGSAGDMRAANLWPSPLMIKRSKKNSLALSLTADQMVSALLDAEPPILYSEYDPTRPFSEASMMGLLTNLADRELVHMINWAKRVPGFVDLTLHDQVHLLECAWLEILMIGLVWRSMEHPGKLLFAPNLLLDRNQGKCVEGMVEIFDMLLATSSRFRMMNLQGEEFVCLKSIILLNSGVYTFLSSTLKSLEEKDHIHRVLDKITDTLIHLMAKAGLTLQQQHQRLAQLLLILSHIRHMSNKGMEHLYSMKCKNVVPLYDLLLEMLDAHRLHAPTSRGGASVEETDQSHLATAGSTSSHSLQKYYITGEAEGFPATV
Experimental: as §1, §2

[3] = test system: Cynomolgus monkey uterine tissue (endometrium); experiment: Histopathological evaluation of Cynomolgus monkey uterine tissue after 8 week oral treatment; format: in vivo; conditions: 8 weeks, average score per category, grades 0-5
Experimental: Histopathological evaluation of Cynomolgus monkey uterine tissue was performed by a pathologist after an 8 week oral treatment with the test compound in four animals per treatment group. […] The following morphological characteristics were examined in H&E stained sections, based on the uterine phases of the normal menstrual cycle in Cynomolgus monkeys. • A. Follicular phase-like changes: • loose endometrial stroma • straight endometrial glands • hypertrophy of endometrial epithelium • mitotic figures • hypertrophy of myometrium • early angiogenesis (sprouting or early proliferation) • basal secretion • B. Luteal phase-like changes • pseudodecidually enlarged stromal cells • coiling of endometrial glands • late angiogenesis (spiral artery formation) • vacuolation of endometrial epithelium • luminal secretion • C. Ovariectomized or non-stimulated (atrophic) endometrium • compact endometrial stroma • atrophy of endometrial epithelium • atrophy of endometrial glands • atrophy of myometrium The severity of each of these above-mentioned findings was scored using a scale of grading: • grade 0: finding not present • grade 1: minimal, very few, very small • grade 2: slight, few, small • grade 3: moderate, moderate number, moderate size • grade 4: marked, many, large • grade 5: massive, extensive number, extensive size For each animal this grading was done. Then the average score per treatment group was calculated for each characteristic. Finally, an average score per category, atrophic, follicular- or luteal phase-like, was calculated from the average individual characteristics. A favourable endometrial safety profile for a compound is characterized by less compound-induced follicular phase-like activity combined with more luteal phase-like characteristics and/or atrophic endometrium.

[4] = test system: progesterone-induced lordosis behavior in female ovariectomised rats; experiment: Facilitation of progesterone-induced lordosis behavior in female ovariectomised rats; format: in vivo, rat; conditions: oral dosing at 1 mg/kg.day, three days pre-treatment, then progestagen
Source text: Rat female sexual behavior is hormone dependent. In estrogen-primed female rats progesterone clearly enhances female sexual or lordosis behavior. However, progesterone is not effective in inducing lordosis in ovariectomised females that have not received estrogen (see also J. B. Becker, S. M. Breedlove and D. Crews (Eds.), Behavioral Endocrinology, 1992, pp. 82-84).
Females were pre-treated for three days with test compound followed by treatment with a progestagen on the fourth day. Four hours after progesterone treatment sexual behavior of the female rat was measured in the presence of a male rat by counting the number of lordosis responses during 10 minutes.

[5] = relative to 17β-estradiol: (EC50 17β-estradiol/EC50 test compound)×100%, CHO cells, luciferase

Sequence of human estrogen receptor β (hERβ) (Q92731 whole entry): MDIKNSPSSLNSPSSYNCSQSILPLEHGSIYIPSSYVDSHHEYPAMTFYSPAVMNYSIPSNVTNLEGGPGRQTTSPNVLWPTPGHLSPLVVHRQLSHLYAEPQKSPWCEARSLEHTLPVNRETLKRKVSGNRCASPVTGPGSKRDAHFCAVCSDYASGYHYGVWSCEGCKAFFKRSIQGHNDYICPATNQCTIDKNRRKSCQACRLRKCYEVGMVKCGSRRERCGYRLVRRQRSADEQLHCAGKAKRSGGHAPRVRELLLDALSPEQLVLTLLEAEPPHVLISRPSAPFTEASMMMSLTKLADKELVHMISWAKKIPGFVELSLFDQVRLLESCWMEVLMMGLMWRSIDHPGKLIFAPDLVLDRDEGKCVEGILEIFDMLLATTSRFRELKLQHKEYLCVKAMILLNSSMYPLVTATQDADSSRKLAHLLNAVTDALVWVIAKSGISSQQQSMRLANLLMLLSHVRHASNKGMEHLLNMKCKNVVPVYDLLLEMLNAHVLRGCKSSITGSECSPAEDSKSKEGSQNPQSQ

Row | SMILES | agonist character at the estrogen β-receptor ([1]; in words) | ERβ-efficacy (%) ([1]; maximal activation relative to maximal activation by 17β-estradiol) | ERβ-potency (%) [1, 5] | ERα/ERβ-selectivity (potency) ([2]; ratio ERα-potency/ERβ-potency) | ERα-potency (%) [2, 5] | Monkey Endometrial profile (scores): Atrophic ([3]; 40 μg/kg once daily oral) | Monkey Endometrial profile (scores): Follicular ([3]; 40 μg/kg once daily oral) | Monkey Endometrial profile (scores): Luteal ([3]; 40 μg/kg once daily oral) | Monkey Endometrial profile (scores): Atrophic ([3]; 200 μg/kg once daily oral) | Monkey Endometrial profile (scores): Follicular ([3]; 200 μg/kg once daily oral) | Monkey Endometrial profile (scores): Luteal ([3]; 200 μg/kg once daily oral) | in vivo estrogenic activity (facilitation of lordosis) [4]
1 | C#C[C@]1(O)C[C@@H](C)[C@H]2[C@@H]3[C@H](CC)Cc4cc(O)ccc4[C@H]3CC[C@@]21C [Compound 8, 7α-ethyl-15β-methyl-19-nor-17α-pregna-1,3,5(10)-trien-20-yne-3,17β-diol] | partial agonist | 40% | 1.54% | 15.2 | 23.45% | 3.0 | 0.0 | 0.0 | 2.3 | 0.5 | 0.2 | –
2 | C#CC1(O)CC(C)C2C3C(CC)Cc4cc(OC(=O)C(C)(C)C)ccc4C3CCC21C (stereo not drawn) [Compound 9a, 3-pivaloyloxy-7α-ethyl-15β-methyl-19-nor-17α-pregna-1,3,5(10)-trien-20-yne-17β-ol] | – | – | – | – | – | – | – | – | – | – | – | active estrogenic compounds
3 | C[C@]12CC[C@@H]3c4ccc(O)cc4CC[C@H]3[C@@H]1CC[C@@H]2O [Compound Y, 17β-estradiol, reference compound] | – | – | – | – | – | – | – | – | 0 | 3.6 | 0.2 | –
4 | C#C[C@]1(O)CC[C@H]2[C@@H]3CCc4cc(O)ccc4[C@H]3CC[C@@]21C [Compound X, 17α-ethynyl-17β-estradiol, reference compound] | – | – | – | – | – | 0 | 2.8 | 0.4 | – | – | – | –
